Results reported in patent US8609862B2, “Use of an adrenal hormone-modifying agent” (Novartis AG, priority 2010, dated 2013).
pIC50: −log10 of the molar value.

What was measured:
Rat CYP11B2 = target: T1, Rat CYP11B2 (Rattus norvegicus, UniProt P30099); assay: In vitro rat CYP11B2 assay; assay type: biochemical; settings: V79-4 cell homogenate, 11-deoxycorticosterone to aldosterone, SPA
T1 construct: made in house; host or cells: V79-4 cell line #305 (stably selected with geneticin and hygromycin); sonicated homogenate, 500 x g supernatant
T1 sequence (P30099 35-510): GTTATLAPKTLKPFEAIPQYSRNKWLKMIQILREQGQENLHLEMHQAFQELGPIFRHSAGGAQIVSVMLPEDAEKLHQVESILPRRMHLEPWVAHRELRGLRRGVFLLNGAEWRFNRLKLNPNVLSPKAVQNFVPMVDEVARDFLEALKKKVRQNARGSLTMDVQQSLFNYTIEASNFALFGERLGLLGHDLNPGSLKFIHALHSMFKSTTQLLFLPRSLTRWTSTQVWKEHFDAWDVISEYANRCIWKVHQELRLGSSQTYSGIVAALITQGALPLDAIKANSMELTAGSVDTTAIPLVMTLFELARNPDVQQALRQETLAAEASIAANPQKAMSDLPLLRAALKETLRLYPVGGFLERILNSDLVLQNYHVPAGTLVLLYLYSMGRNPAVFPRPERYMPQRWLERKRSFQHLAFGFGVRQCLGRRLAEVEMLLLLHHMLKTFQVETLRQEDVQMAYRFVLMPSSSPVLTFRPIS
Experimental: (§1) Following 2 days of growth, cells are washed once with PBS, scraped and collected in PBS, and centrifuged at 1,300 rpm for 6 min. […] The sonication procedure is repeated 3 more times, with a 5 min incubation on ice between sonications. The sonicated material is then spun at 500×g for 4 min to remove unbroken cells. The supernatant is brought to a final glycerol concentration of 5%, flash-frozen in liquid nitrogen, and stored at −80° C.
The CYP11B2 assay is performed in 96-well U-bottom non-tissue-culture-treated plates. […] Plates are then centrifuged at 2,400 rpm for 6 min, and 100 μl of supernatant is removed for measurement of aldosterone content by scintillation proximity assay (SPA).
Measurement of aldosterone is performed using a 96-well plate format. […] Anti-mouse PVT SPA beads (50 μl) are then added to each well and incubated for 4 hr at room temperature prior to counting in a Microbeta plate counter. The amount of aldosterone in each sample is calculated by comparing with a standard curve generated using known quantities of the hormone.
Full concentration-response curves of an inhibitor are performed at least 3 times. The IC50 values are derived using a non-linear least squares curve-fitting program from DBS XLfit.

Human CYP11B1 = target: T2, Human CYP11B1 (Homo sapiens, UniProt P15538); assay: In vitro human CYP11B1 assay; assay type: biochemical; settings: V79-4 cell homogenate, 11-deoxycortisol to cortisol, SPA
T2 construct: made in house; host or cells: V79-4 cell line #618 (stably selected with geneticin and hygromycin); sonicated homogenate, 500 x g supernatant
T2 sequence (P15538 25-503): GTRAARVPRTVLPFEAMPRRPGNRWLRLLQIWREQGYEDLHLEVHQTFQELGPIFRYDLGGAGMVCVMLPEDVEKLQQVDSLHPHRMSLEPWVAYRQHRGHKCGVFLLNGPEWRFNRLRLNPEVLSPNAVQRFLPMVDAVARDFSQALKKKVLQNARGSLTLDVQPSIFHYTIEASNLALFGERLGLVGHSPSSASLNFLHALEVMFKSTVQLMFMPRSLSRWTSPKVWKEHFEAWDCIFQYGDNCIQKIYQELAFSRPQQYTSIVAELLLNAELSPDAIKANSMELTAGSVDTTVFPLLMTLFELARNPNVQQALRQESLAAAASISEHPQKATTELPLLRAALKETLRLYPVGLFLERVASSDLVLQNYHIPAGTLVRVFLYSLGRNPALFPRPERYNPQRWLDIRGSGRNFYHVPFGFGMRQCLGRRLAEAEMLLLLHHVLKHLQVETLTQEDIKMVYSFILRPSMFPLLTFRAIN
Excerpt: Complete EDTA-free protease inhibitor tablets were obtained from Roche Applied Science (Indianapolis, Ind.). Dulbecco's modified Eagle medium (DMEM), antibiotic, geneticin, hygromycin, and fetal bovine serum (FBS) were products of Invitrogen (Carlsbad, Calif.). NADPH Regeneration Solution A and Solution B were purchased from BD Biosciences Clontech (Palo Alto, Calif.). Anti-mouse PVT SPA beads and [1,2,6,7-^3H(N)]hydrocortisone were acquired from Amersham (Piscataway, N.J.) and PerkinElmer (Boston, Mass.), respectively.
as §1, with “4” for “2”, “were” for “are”, “was” for “is”, “rest” for “incubation”
The CYP11B1 assays were performed in 96-well U-bottom non-tissue-culture-treated plates. […] Plates were then centrifuged at 2,400 rpm for 6 min, and 50 μl of supernatant was removed for measurement of cortisol content by scintillation proximity assay (SPA). Measurement of cortisol was performed using a 96-well plate format. […] Anti-mouse PVT SPA beads (50 μl) were then added to each well and incubated overnight at room temperature prior to counting in a Microbeta plate counter. The amount of cortisol in each sample was calculated by comparing with a standard curve generated using known quantities of the hormone. Full concentration-response curves of an inhibitor were performed at least 3 times. The IC50 values were derived using a non-linear least squares curve-fitting program from IDBS XLfit.

pIC50 (Rat CYP11B2)	pIC50 (Human CYP11B1)	SMILES
9.00	9.70	N#Cc1ccc(C2CCCCc3cncn32)c(Br)c1 (racemic) [3-bromo-4-(6,7,8,9-tetrahydro-5H-imidazo[1,5-a]azepin-5-yl)benzonitrile racemate, 3-bromo-4-(6,7,8,9-tetrahydro-5H-imidazo[1,5-a]azepin-5-yl)benzonitrile]
9.00	9.52	N#Cc1ccc(C2CCCCc3cncn32)c(-c2ccc(F)cc2)c1 (single isomer, unassigned) [4′-fluoro-6-(6,7,8,9-tetrahydro-5H-imidazo[1,5-a]azepin-5-yl)biphenyl-3-carbonitrile]
8.30	9.10	COc1ccc(CN(C)C(=O)C2(c3ccc(C#N)cc3Cl)CCc3cncn32)cc1 (stereo not drawn) [5-(2-chloro-4-cyanophenyl)-N-(4-methoxybenzyl)-N-methyl-6,7-dihydro-5H-pyrrolo[1,2-c]imidazole-5-carboxamide]
